Laboratory results taken from patent US20260297542A1, “HERBICIDE RESISTANT PLANTS” (SYNGENTA CROP PROTECTION AG, priority 2023, published 2026).
Where a chain is given by its changes, count along the chain named.

Assays:
Experiment in all cases: E. coli hemG growth inhibition by herbicide, AtPPO1 variant
Format in all cases: cell-based
Conditions in all cases: read-out: percentage growth inhibition
AtPPO1 Q272T = target: T1, AtPPO1 Q272T (Arabidopsis thaliana, UniProt P55826, Q272T)
T1 construct: expressed in transfected cells; host or cells: E. coli BL21(DE3) hemG (hemG replaced by CmR), pET24a plasmid
T1 sequence (P55826 35-537 Q272T): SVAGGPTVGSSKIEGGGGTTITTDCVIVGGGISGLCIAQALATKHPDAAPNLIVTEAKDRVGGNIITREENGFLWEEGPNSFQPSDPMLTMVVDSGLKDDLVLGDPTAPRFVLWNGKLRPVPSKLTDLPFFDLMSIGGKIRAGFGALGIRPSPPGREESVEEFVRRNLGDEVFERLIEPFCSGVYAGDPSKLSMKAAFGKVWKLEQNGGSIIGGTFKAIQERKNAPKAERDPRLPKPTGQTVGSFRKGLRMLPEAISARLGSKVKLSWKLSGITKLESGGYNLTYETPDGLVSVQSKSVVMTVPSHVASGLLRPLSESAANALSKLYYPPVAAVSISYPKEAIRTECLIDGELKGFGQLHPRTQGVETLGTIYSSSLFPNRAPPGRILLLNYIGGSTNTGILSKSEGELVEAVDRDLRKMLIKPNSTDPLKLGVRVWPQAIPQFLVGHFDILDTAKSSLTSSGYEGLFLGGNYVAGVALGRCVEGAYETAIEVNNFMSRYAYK
Outline: (§1)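 E. coli BL21(DE3) ΔhemG::CmR complemented by AtPPO1 variants (pET24a, T7, E. coli codon-optimised); TB + 0.1 mM IPTG, 1:100 inoculum; 6.25 ppm herbicide 0/E or 0.78 ppm herbicide B vs DMSO; 24 h, 37° C, 250 rpm; OD600 at 24 h → % growth inhibition.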

AtPPO1 T461Q = target: T2, AtPPO1 T461Q (Arabidopsis thaliana, UniProt P55826, T461Q)
T2 construct: expressed in transfected cells; host or cells: E. coli BL21(DE3) hemG, pET24a plasmid
T2 sequence (P55826 35-537 T461Q): T1 sequence (P55826 35-537 Q272T) with T238Q, T427Q
Outline: as §1

AtPPO1 Y361P = target: T3, AtPPO1 Y361P (Arabidopsis thaliana, UniProt P55826, Y361P)
T3 construct: expressed in transfected cells; host or cells: E. coli BL21(DE3) hemG (pET24a, T7 promoter)
T3 sequence (P55826 35-537 Y361P): T1 sequence (P55826 35-537 Q272T) with T238Q, Y327P
Outline: as §1

AtPPO1 G481N = target: T4, AtPPO1 G481N (Arabidopsis thaliana, UniProt P55826, G481N)
T4 construct: expressed in transfected cells; host or cells: E. coli BL21(DE3) hemG, pET24a plasmid
T4 sequence (P55826 35-537 G481N): T1 sequence (P55826 35-537 Q272T) with T238Q, G447N
Outline: as §1

| SMILES | inhibition at 0.78 ppm (AtPPO1 Q272T) [%] | inhibition at 0.78 ppm (AtPPO1 T461Q) [%] | inhibition at 0.78 ppm (AtPPO1 Y361P) [%] | inhibition at 0.78 ppm (AtPPO1 G481N) [%] | inhibition at 6.25 ppm (AtPPO1 Q272T) [%] | inhibition at 6.25 ppm (AtPPO1 T461Q) [%] | inhibition at 6.25 ppm (AtPPO1 Y361P) [%] | inhibition at 6.25 ppm (AtPPO1 G481N) [%] |
| --- | --- | --- | --- | --- | --- | --- | --- | --- |
| C#CCN1C(=O)C(F)(F)Oc2cc(F)c(-n3c(=O)n(C)c(=S)n(C)c3=O)cc21 [Herbicide B, trifludimoxazin] | 28 | 31 | 28 | 44 | – | – | – | – |
| CCOC(=O)[C@]1(C)CC(c2cc(-n3c(=O)n(C)c(=S)n(C)c3=O)c(F)cc2Cl)=NO1 [Herbicide D, ethyl (5S)-3-[2-chloro-5-(3,5-dimethyl-2,6-dioxo-4-thioxo-1,3,5-triazinan-1-yl)-4-fluoro-phenyl]-5-methyl-4H-isoxazole-5-carboxylate] | – | – | – | – | 23 | 22 | 36 | 14 |
| CC(C)N(C)S(=O)(=O)NC(=O)c1cc(-n2c(=O)cc(C(F)(F)F)n(C)c2=O)c(F)cc1Cl [Herbicide E, saflufenacil] | – | – | – | – | 64 | 35 | 38 | 4 |
